Results from patent US11046690B2, “Pyridazinones and methods of use thereof” (Goldfinch Bio, Inc., priority 2018, dated 2021).

Molecular target: T1, TRPC5 (Homo sapiens, UniProt Q9UL62)
T1 construct: expressed in transfected cells
T1 sequence (Q9UL62 1-973): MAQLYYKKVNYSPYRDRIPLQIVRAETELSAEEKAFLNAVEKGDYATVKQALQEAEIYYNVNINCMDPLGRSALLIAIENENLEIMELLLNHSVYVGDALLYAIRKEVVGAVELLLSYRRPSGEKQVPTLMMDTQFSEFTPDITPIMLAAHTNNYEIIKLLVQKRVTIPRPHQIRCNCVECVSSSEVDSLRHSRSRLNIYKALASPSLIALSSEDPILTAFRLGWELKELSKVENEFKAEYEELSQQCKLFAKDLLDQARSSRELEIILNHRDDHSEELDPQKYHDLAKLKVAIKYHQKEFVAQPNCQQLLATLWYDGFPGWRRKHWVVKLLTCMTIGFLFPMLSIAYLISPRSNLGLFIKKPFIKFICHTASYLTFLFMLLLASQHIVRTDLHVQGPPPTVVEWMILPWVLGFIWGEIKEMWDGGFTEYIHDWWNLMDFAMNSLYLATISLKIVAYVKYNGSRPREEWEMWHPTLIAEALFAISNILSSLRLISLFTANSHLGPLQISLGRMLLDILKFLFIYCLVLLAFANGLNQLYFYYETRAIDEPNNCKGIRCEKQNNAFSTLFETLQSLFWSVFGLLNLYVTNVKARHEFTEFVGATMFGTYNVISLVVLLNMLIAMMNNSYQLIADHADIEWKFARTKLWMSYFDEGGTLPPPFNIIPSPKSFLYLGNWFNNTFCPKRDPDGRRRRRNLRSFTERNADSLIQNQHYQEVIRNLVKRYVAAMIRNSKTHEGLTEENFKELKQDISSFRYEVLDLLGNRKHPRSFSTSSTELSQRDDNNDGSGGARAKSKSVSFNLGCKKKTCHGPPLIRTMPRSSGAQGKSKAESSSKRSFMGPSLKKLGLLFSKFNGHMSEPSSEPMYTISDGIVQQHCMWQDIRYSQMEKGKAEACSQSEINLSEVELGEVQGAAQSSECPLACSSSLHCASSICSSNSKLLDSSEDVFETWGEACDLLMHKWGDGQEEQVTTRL
Experiment: TRPC5 activity assay (FLIPR calcium fluorescence, Riluzole stimulation)
Assay type: cell-based
Conditions: HEK-TREx hTRPC5 cells, 30 μM Riluzole stimulation; read-out: TRPC5 (IC50 class)
Experimental: ICLN-1633 cells (HEK-TREx hTRPC5) expressing TRPC5 were generated as follows. Commercially available HekTrex-293 cells were seeded at 0.7×10^6 cells/well in a 1×6-well plate 24 hrs prior to transfection using 2 mL cell growth media containing no antibiotics (1× DMEM/high glucose (Hyclone #SH30022.02); 10% fetal bovine serum (Sigma) 2 mM sodium pyruvate, 10 mM HEPES). […] On day 2, 2 μg of plasmid DNA plus 6 μl of Xtreme-GENE HP reagent in Optimem (200 μl total volume) was prepared and incubated for 15 min at room temperature. This plasmid solution was then gently overlayed dropwise onto each well and the plate was gently swirled to mix complex with the media for approximately 30 seconds. Transfected cells were incubated at 37° C. in a 10%/CO2 incubator for 24 hrs. The transfected cells were harvested and transferred into 2×150 mm dishes containing cell growth media with no antibiotics at 37° C.
The next day selection was initiated to generate a stable pool by adding cell growth media containing 150 μg/mL Hygromycin and 5 μg/mL Blasticidin and cells were allowed to grow. Media with the selection agent was changed every 1-2 days as needed to remove dead cells. After 7 days, the hygromycin concentration was reduced to 75 μg/mL and cells growth was allowed to continue.
Single clones were selected as follows. The stable pool was diluted to 10 cells/mL and seeded (100 μl/well) into 24×96 well plates (˜1 cell/well) and allowed to grow for 7 days in cell growth media. Fresh media (100 μl) was added and the cells allowed to grow for another 1-2 weeks and then stored frozen or used immediately.
10-point dose response curves were generated using the Echo-550 acoustic dispenser. Compound source plates were made by serially diluting compound stocks to create 10 mM, 1 mM, and 0.1 mM solutions in DMSO into Echo certified LDV plates. The Echo then serially spotted 100%/DMSO stock solutions into source dose response plates to generate a 4-fold dilution scheme. 100%0/DMSO was added to the spotted dose response plates to bring the final volume to 5 μl. 300 nl of the dose response stock plate was then spotted into pre-incubation and stimulation assay plates. 50 μl of pre-incubation buffer and 100 μl of stimulation buffer was then added to the plates resulting in a final assay test concentration range of 30 μM to 0.0001 μM with a final DMSO concentration of 0.3%.
Human ICLN-1633 cells expressing were plated onto 384 well, black PDL-coated microplates and maintained in TRPC5 growth media the day prior to use for experiments. TRPC5 expression was induced by the application of 1 μg/mL tetracycline at the time of plating. […] Cells are incubated at room temperature, protected from light, for 60-90 minutes. After the incubation period, the dye is removed and replaced with 10 μl of EBSS. Cell, pre-incubation and stimulation plates are loaded onto the FLIPR-II and the assay is initiated. The FLIPR measures a 10 second baseline and then adds 10 μl of 2X compounds (or controls). Changes in fluorescence are monitored for an additional 5 minutes. After the 5 minute pre-incubation, 20 μl of 2X Riluzole (with 1X compound or controls) is added to the cell plate. The final Riluzole stimulation concentration in the assay is 30 μM. After the Riluzole addition, changes in fluorescence are monitored for an additional 5 minutes.
Compound modulation of TRPC5 calcium response was determined as follows. After the Englerin A, fluorescence was monitored for a 5-minute period. The maximum relative fluorescence response (minus the control response of 1 μM of an internal control compound known to maximally block TRPC5 calcium response, the “REF INHIB” in the formula below) was captured and exported from the FLIPR.
Compound effect is calculated as % inhibition using the following formula:
[formula] wherein “RFU” is the relative fluorescent units.

CC1Cc2c(ncnc2Oc2ccc(F)cc2Cl)CN1c1cn[nH]c(=O)c1Cl (single isomer, unassigned) [Compound 117]
IC50: < 50 nM

O=c1[nH]ncc(N2CCc3c(ncnc3Oc3ccc(F)cc3Cl)C2)c1Cl [Compound 104]
IC50: < 50 nM
